# From ChEMBL document CHEMBL1614632, “Trend analysis of a database of intravenous pharmacokinetic parameters in humans for 670 drug compounds” (Drug Metab Dispos, 2008)
# How the values were obtained:
# clinical [1] = conditions: human, in vivo, iv, Vdss
# clinical [2] = conditions: human, in vivo, iv
# clinical [3] = conditions: human, in vivo, iv, CL
# clinical [4] = conditions: human, in vivo, iv, t1/2
Structure (SMILES),Vd (clinical [1]),MRT (clinical [2]),clearance (clinical [3]),half-life (clinical [4])
CCCc1nc2c(C)cc(-c3nc4ccccc4n3C)cc2n1Cc1ccc(-c2ccccc2C(=O)O)cc1,5.3 L/kg,11 h,8.4 mL/min/kg,20 h
C=CC[N+]12CC[C@@]34c5ccccc5N5/C=C6/[C@H]7C[C@H]8[C@@]9(CC[N@@+]8(CC=C)C/C7=C/CO)c7ccccc7N(/C=C(/[C@@H](C[C@@H]31)/C(=C\CO)C2)[C@H]54)[C@@H]69 (some centres not stated),0.32 L/kg,4.1 h,1.3 mL/min/kg,3.6 h
CNS(=O)(=O)CCc1ccc2[nH]cc(C3CCN(C)CC3)c2c1,2.4 L/kg,6.1 h,6.6 mL/min/kg,6.6 h
CNS(=O)(=O)Cc1ccc2[nH]cc(CCN(C)C)c2c1,1.7 L/kg,1.5 h,19 mL/min/kg,1.7 h
CN(C)CCN(Cc1cccs1)c1ccccn1,3.3 L/kg,2 h,28 mL/min/kg,1.6 h
C[C@@H]1CC2=CC(=O)CC[C@]2(C)[C@H]2CC[C@@]3(C)[C@@H](CC[C@@H]3O)[C@]12C,0.8 L/kg,0.67 h,20 mL/min/kg,0.65 h
CN1C(=O)[C@H](O)C[C@H]1c1cccnc1,0.85 L/kg,7.9 h,1.8 mL/min/kg,5.9 h
Cn1cc(NC(=O)Nc2cc(C(=O)Nc3cc(C(=O)Nc4ccc5cc(S(=O)(=O)O)cc(S(=O)(=O)O)c5c4)n(C)c3)n(C)c2)cc1C(=O)Nc1cc(C(=O)Nc2ccc3cc(S(=O)(=O)O)cc(S(=O)(=O)O)c3c2)n(C)c1,0.27 L/kg,960 h,0.0047 mL/min/kg,730 h
C#C[C@]1(OS(=O)(=O)O)CC[C@H]2[C@@H]3CCc4cc(O)ccc4[C@H]3CC[C@@]21C,0.61 L/kg,7.8 h,1.3 mL/min/kg,9.3 h
NCCCNc1ccc2c(CNCCO)nn3c4c(O)ccc(O)c4c(=O)c1c23,12 L/kg,11 h,18 mL/min/kg,32 h
COc1cc(CC(=O)NCC(=O)N(CCC(=O)O)Cc2ccc(OC)c(OC)c2)ccc1NC(=O)Nc1ccccc1C,0.25 L/kg,0.38 h,11 mL/min/kg,1.6 h
CC(C)(C)[C@H](NC(=O)[C@H](CC1CCCC1)CN(O)C=O)C(=O)N1CCN(Cc2ccc3c(c2)OCO3)CC1,1.1 L/kg,5.9 h,3.1 mL/min/kg,9.4 h
C[C@H](N[C@@H](CCc1ccccc1)C(=O)O)C(=O)N1Cc2ccccc2C[C@H]1C(=O)O,0.13 L/kg,2.3 h,0.93 mL/min/kg,2.3 h
Cc1nnc(SCC2=C(C(=O)O)N3C(=O)[C@@H](NC(=O)[C@H](O)c4ccccc4)[C@H]3SC2)s1,0.13 L/kg,0.83 h,2.6 mL/min/kg,1 h
CCN1C[C@H]2CN(C)C[C@H](C1)C2OC(=O)c1ccc(Cl)cc1 (some centres not stated),9 L/kg,8.8 h,17 mL/min/kg,8.6 h
N=C(N)c1ccc(CNC(=O)[C@@H]2CCN2C(=O)[C@H](NCC(=O)O)C2CCCCC2)cc1,0.23 L/kg,2 h,1.9 mL/min/kg,1.6 h
COc1ccccc1N1CCN(CCCNc2cc(=O)n(C)c(=O)n2C)CC1,0.75 L/kg,4 h,3.1 mL/min/kg,3.5 h
CC(=N)N1CC[C@H](SC2=C(C(=O)O)N3C(=O)[C@H]([C@@H](C)O)[C@H]3C2)C1,0.19 L/kg,1.2 h,2.6 mL/min/kg,0.96 h
CN(C)/N=N/c1ccc(C(=O)O)cc1,0.25 L/kg,3 h,1.3 mL/min/kg,2.5 h
CCC1=C[C@@H]2CN(C1)Cc1c([nH]c3ccccc13)[C@@](C(=O)OC)(c1cc3c(cc1OC)N(C)[C@H]1[C@@](O)(C(=O)OC)[C@H](OC(C)=O)[C@]4(CC)C=CCN5CC[C@]31[C@@H]54)C2 (stereo in doubt; form 1) [VINORELBINE],12 L/kg,17 h,12 mL/min/kg,18 h
COc1cc2c(cc1OC)CN(c1cc(N)c3cc(OC)c(OC)cc3n1)CC2 [ABANOQUIL],6.3 L/kg,7.6 h,14 mL/min/kg,5.9 h
C[C@H]1O[C@H](O[C@H]2[C@H](O)[C@@H](O)[C@@H](O[C@H]3[C@H](O)[C@@H](O)C(O)O[C@@H]3CO)O[C@@H]2CO)[C@H](O)[C@@H](O)[C@@H]1N[C@H]1C=C(CO)[C@@H](O)[C@H](O)[C@H]1O (some centres not stated) [ACARBOSE],0.32 L/kg,2.4 h,2.2 mL/min/kg,2.7 h
N[C@H](C(=O)O)[C@@H]1CC(Cl)=NO1 [ACIVICIN],0.5 L/kg,12 h,0.69 mL/min/kg,9.9 h
CC(C)NCC(O)COc1ccc(COCCOC(C)C)cc1 (configuration not stated) [BISOPROLOL],2.4 L/kg,,3.7 mL/min/kg,10 h
COC(=O)O[C@@]12CO[C@@H]1C[C@H](O)[C@@]1(C)C(=O)[C@H](OC(C)=O)C3=C(C)[C@@H](OC(=O)[C@H](O)[C@@H](NC(=O)c4ccccc4)c4ccccc4)C[C@@](O)([C@@H](OC(=O)c4ccccc4)[C@H]21)C3(C)C [BMS-188797],6.9 L/kg,13 h,8.6 mL/min/kg,
C=CC1=C(C(=O)O)N2C(=O)[C@@H](NC(=O)/C(=N\OCC(=O)O)c3csc(N)n3)[C@H]2SC1 [CEFIXIME],0.24 L/kg,,1 mL/min/kg,3.2 h
O=C(N[C@H](CO)[C@H](O)c1ccc([N+](=O)[O-])cc1)C(Cl)Cl [CHLORAMPHENICOL],,6.5 h,2.4 mL/min/kg,4.6 h

Structure (SMILES),Vd (clinical [1]),MRT (clinical [2]),clearance (clinical [3]),half-life (clinical [4])
CN(C)CCC(c1ccc(Cl)cc1)c1ccccn1 (configuration not stated) [CHLORPHENIRAMINE],3.3 L/kg,22 h,2.5 mL/min/kg,
CN(C)CCCC1(c2ccc(F)cc2)OCc2cc(C#N)ccc21 (configuration not stated) [CITALOPRAM],,47 h,4.3 mL/min/kg,33 h
CN(C)CCCN1c2ccccc2CCc2ccc(Cl)cc21 [CLOMIPRAMINE],13 L/kg,26 h,8.2 mL/min/kg,
O=c1[nH]cnc2c1ncn2[C@H]1CC[C@@H](CO)O1 [DIDANOSINE],,1.2 h,11 mL/min/kg,1.4 h
C[C@H](CCc1ccccc1)NC[C@H](O)c1ccc(O)c(C(N)=O)c1 [DILEVALOL],,2.8 h,29 mL/min/kg,3.3 h
O=c1[nH]c2ccccc2n1CCCN1CCC(n2c(=O)[nH]c3cc(Cl)ccc32)CC1 [DOMPERIDONE],3.4 L/kg,6 h,9.5 mL/min/kg,
CCN(CC)C(=O)/C(C#N)=C/c1cc(O)c(O)c([N+](=O)[O-])c1 [ENTACAPONE],0.27 L/kg,0.38 h,12 mL/min/kg,
C[C@]12CC[C@@H]3c4ccc(O)cc4CC[C@H]3[C@@H]1CC[C@@H]2O [ESTRADIOL],,0.7 h,30 mL/min/kg,1.7 h
CCOC(=O)c1ncn2c1CN(C)C(=O)c1cc(F)ccc1-2 [FLUMAZENIL],,1 h,16 mL/min/kg,0.78 h
O=C(O)P(=O)(O)O [FOSCARNET],0.5 L/kg,,2.1 mL/min/kg,4.7 h
NCC1(CC(=O)O)CCCCC1 [GABAPENTIN],0.71 L/kg,7 h,1.7 mL/min/kg,
CCC1=C(C)CN(C(=O)NCCc2ccc(S(=O)(=O)NC(=O)N[C@H]3CC[C@H](C)CC3)cc2)C1=O [GLIMEPIRIDE],0.19 L/kg,,0.5 mL/min/kg,9.95 h
C[C@@H](O)[C@H]1C(=O)N2C(C(=O)O)=C(SCCN=CN)C[C@H]12 [IMIPENEM ANHYDROUS],,1.3 h,3 mL/min/kg,0.95 h
CCC(C)n1ncn(-c2ccc(N3CCN(c4ccc(OCC5COC(Cn6cncn6)(c6ccc(Cl)cc6Cl)O5)cc4)CC3)cc2)c1=O (configuration not stated) [ITRACONAZOLE],7.4 L/kg,,5.1 mL/min/kg,25 h
O=C1Nc2ccc(Cl)cc2C(c2ccccc2Cl)=NC1O (configuration not stated) [LORAZEPAM],,22 h,1 mL/min/kg,17 h
CN(Cc1cnc2nc(N)nc(N)c2n1)c1ccc(C(=O)N[C@@H](CCC(=O)O)C(=O)O)cc1 [METHOTREXATE],0.43 L/kg,3.4 h,2.1 mL/min/kg,
Cc1ncc2n1-c1ccc(Cl)cc1C(c1ccccc1F)=NC2 [MIDAZOLAM],,3.5 h,5.3 mL/min/kg,3.1 h
CN1CCN2c3ncccc3Cc3ccccc3C2C1 (configuration not stated) [MIRTAZAPINE],4.2 L/kg,8.8 h,8 mL/min/kg,
CCc1nn(CCCN2CCN(c3cccc(Cl)c3)CC2)c(=O)n1CCOc1ccccc1 [NEFAZODONE],,1.1 h,7.5 mL/min/kg,1.2 h
CN1CCC[C@H]1c1cccnc1 [NICOTINE],,2.4 h,18 mL/min/kg,2 h
CC[C@H](C)C(=O)O[C@H]1C[C@H](O)C=C2C=C[C@H](C)[C@H](CC[C@@H](O)C[C@@H](O)CC(=O)O)[C@H]21 [PRAVASTATIN],0.46 L/kg,,14 mL/min/kg,0.78 h
CO[C@H]1/C=C/O[C@@]2(C)Oc3c(C)c(O)c4c(O)c(c(/C=N/N5CCN(C)CC5)c(O)c4c3C2=O)NC(=O)/C(C)=C\C=C\[C@H](C)[C@H](O)[C@@H](C)[C@@H](O)[C@@H](C)[C@H](OC(C)=O)[C@@H]1C [RIFAMPIN],0.97 L/kg,4.6 h,3.5 mL/min/kg,
C/C=C1\NC(=O)[C@H]2CSSCC/C=C/[C@H](CC(=O)N[C@H](C(C)C)C(=O)N2)OC(=O)[C@H](C(C)C)NC1=O [ROMIDEPSIN],,2.6 h,7.4 mL/min/kg,11 h
CN1C(C(=O)Nc2ccccn2)=C(O)c2sccc2S1(=O)=O [TENOXICAM],,92 h,0.03 mL/min/kg,67 h
CCCC(CCC)C(=O)O [VALPROIC ACID],0.14 L/kg,,0.16 mL/min/kg,12 h
COc1ccc(C(CN(C)C)C2(O)CCCCC2)cc1 (configuration not stated) [VENLAFAXINE],,5.2 h,14 mL/min/kg,5 h
